In the NIST ThermoML archive (doi:10.1021/je0501890):
Numbers after ± are expanded uncertainties.

Conditions: 298.15 K; 101.33 kPa; Liquid

Row | Structure (SMILES) | mass density [kg/m3] | viscosity [mPa·s]
1 | ClC=C(Cl)Cl [trichloroethene] | 1455.65 ± 1.3 | 0.536 ± 0.008
2 | CCCCCCCO [heptan-1-ol] | 818.48 ± 0.68 | 5.818 ± 0.079
3 | CC(Cl)(Cl)Cl [1,1,1-trichloroethane] | 1329.55 ± 1.1 | 0.789 ± 0.011
4 | ClC(Cl)=C(Cl)Cl [tetrachloroethene] | 1613.2 ± 1.6 | 0.839 ± 0.012
5 | ClCCCl [1,2-dichloroethane] | 1245.64 ± 0.92 | 0.776 ± 0.011
6 | ClC(Cl)C(Cl)Cl [1,1,2,2-tetrachloroethane] | 1586.65 ± 1.6 | 1.431 ± 0.019
